Measured values: patent US6417159B1 (Queen's University at Kingston, priority 1996, dated 2002)
Where “and” joins values, the source holds several entries; their conditions need not be identical. Equal values may be shown once. Read-outs that look alike come from different tables or passages of the source. Where no end group is shown, it is not given here. The star is where a group is joined. 125I = [125I]*

Key:
PC12 cells [1] = type: cell-based, rat
Method: Labeling of all tyrosinated peptides for uptake studies were carried out using IODO-BEADS™ (Pierce). Briefly, 5 μg of the desired peptide was iodinated at pH 7.4, at room temperature, and separated from free iodide by selective elution from a C-18 SEP PAK LIGHT™ (Waters-Millipore) in 80% CH3CN, 1.0% trifluoroacetic acid. The solvent was removed at room temperature under a stream of nitrogen. Specific activity of labeled peptide was 50-65 cpm-pg^−1.
Stock solutions of [^125I]-labeled peptides (final concentration […], specific activity 50-800 cpm·pmol^−1) were prepared in RPMI medium with 10% fetal calf serum. Uptake was initiated by adding the peptide to the cell suspension in RPMI 1640 with 10% fetal calf serum, maintained at 37° C. Cell-associated label was determined by counting the cell pellet obtained by microcentrifuging an aliquot (100 μl containing 1-3×10^5 cells) of the cell suspension through a layer of silicone oil. The silicone oil was 3:1 mixture of dibutyl phthalate:dinonyl phthalate (Fluke Chemie, Switzerland) with a density of 1.027 (Drevon et al., 1977).
The uptake versus were corrected for “adsorption” of peptides to the cell surface at zero time. This was assessed by determining label that remained associated with cells removed immediately after the addition of [^125I]-peptide and washed by 2 cycles of centrifugation at […] for 5 minutes and resuspension in peptide-free tissue culture medium. At the indicated times, cold chase values were obtained by removing an aliquot (500 μl) of the cell suspension for centrifugation at 150×g for 5 minutes, followed by resuspension in its initial volume of RPMI+10% fetal calf serum containing 50 μM (10×original) unlabeled peptide. The cell suspension was then returned at 37° C. for a further 30 minutes. At the end of this time, cell-associated label was determined as above.

PC12 cells [2] = assay: NGF-mediated neurite growth by PC12 cells; type: cell-based, rat; details: PC12 cells, peptide co-incubated with NGF
Method: PC12 cells or PC12^nnr5 cells (Loeb et al., 1991) were seeded on poly-D-lysine-coated (0.1 mg·ml^−1, overnight) 96-well microculture dishes (Falcon) at approximately 800 cells per well with RPMI with 10% fetal calf serum. Peptides were added to replicate wells 48 hours before, or at the time of, addition of NGF. NGF was prepared by the method of Mobley et al. (1976) and used at 1-2 nM. Other additives were diluted at least 100-fold and added to the wells as described. At various times following incubation at 37° C., 5% CO2, wells were scored for neurite-bearing cells by serial counting of representative circumferences of each well.
A Leitz Diavert inverted microscope with phase optics was used to score neurite growth. For both PC12 cells and sensory neurons, a neurite was scored as such if its calibre from origin to terminal was approximately the same and the length was equal to or greater than 1.5 cell body diameters.

ED8 chick DRG neurons = assay: NGF-mediated neurite growth by ED8 chick DRG sensory neurons; type: cell-based; details: for % of Control Response DRG: (peptide with NGF − NGF alone)/(R3 with NGF − NGF alone) ×100, scored at 43, 44 and 48 hours, M ± SEM, n = 3 assays; for Reduction (loss) of biological effect relative to R3 on enhancement of NGF-mediated neurite growth: DRG cells, 40-50 hours in vitro; for Neurite growth in control wells: 16-20 hours
p65 subunit of NFkB = biological target: T1, p65 subunit of NFkB (Rattus norvegicus, UniProt Q7TQN4); assay: Chemical cross-linking of 125I-Y-R3 to 65 kDa species in PC12 soluble extract, displacement by unlabeled peptide; type: binding; details: for Displacement of radiolabel from 65 kDa band: 0.5 μM 125I-Y-R3, 150-fold molar excess of unlabeled peptide, densitometric scanning
T1 construct: endogenous in cells; host or cells: PC12 (soluble cell extract)
T1 sequence (Q7TQN4 whole entry): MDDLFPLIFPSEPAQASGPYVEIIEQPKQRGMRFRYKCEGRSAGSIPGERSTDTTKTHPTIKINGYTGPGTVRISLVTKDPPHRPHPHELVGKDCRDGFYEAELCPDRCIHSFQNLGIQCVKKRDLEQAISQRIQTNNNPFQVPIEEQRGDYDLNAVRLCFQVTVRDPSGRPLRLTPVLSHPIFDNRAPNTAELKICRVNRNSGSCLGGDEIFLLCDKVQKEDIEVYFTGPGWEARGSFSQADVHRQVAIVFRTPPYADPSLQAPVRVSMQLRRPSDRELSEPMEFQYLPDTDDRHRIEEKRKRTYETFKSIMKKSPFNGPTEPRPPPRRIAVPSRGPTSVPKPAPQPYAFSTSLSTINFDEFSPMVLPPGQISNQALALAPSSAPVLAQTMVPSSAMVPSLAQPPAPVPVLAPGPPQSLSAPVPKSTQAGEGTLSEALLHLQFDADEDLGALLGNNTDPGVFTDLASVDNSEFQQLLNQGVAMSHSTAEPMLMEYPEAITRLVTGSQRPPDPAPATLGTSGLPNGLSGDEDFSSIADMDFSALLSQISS
Method: Y-R3 (5 μg) was labeled with 1 mCi of Na^125I (Amersham) using iodobeads (Pierce) in 50 mM sodium phosphate buffer, as described in Part A. ^125I-Y-R3 (0.5 μM) was incubated with PC12 cell extract (prepared as above) or affinity purified proteins at pH 7.0, with and without a 150-fold molar excess of competing unlabeled peptide for 2 hrs at 4° C. At that time, EDC (Pierce) and NHS (Pierce) were added to a final concentration of 2 mM each and the reaction allowed to proceed for 30 min at room temperature. The reaction was quenched by adding Tris-HCl to a final concentration of 50 mM. An aliquot was removed and mixed with 4 volumes of SDS sample buffer for SDS-PAGE and the remainder subjected to immunoprecipitation.
Cell extract or R3 affinity purified material was incubated for 4 hrs at 4° C. with 5 μl of agarose conjugated goat anti-NFkB p65 (Santa Cruz). The gel was washed at 4° C. with 5×1 ml of HKR containing 1% NP40, followed by a final wash without detergent. SDS reducing sample buffer was added to the gel and the samples were heated at 95° C. for 5 minutes prior to electrophoresis as described above.
To examine the structural specificity of the interaction of R3 peptide with the 65 kDa species, PC12 cell soluble extract was chemically cross-linked with 0.5 μM ^125I-Y-R3 in the absence and presence of a 150-fold molar excess of unlabeled R9 or R10. […] The reaction mixtures were separated by SDS-PAGE, followed by autoradiography.

c-fos mRNA = details: one-hour exposure
PC12 cells [3] = assay: Cytotoxicity in PC12 cultures; details: concentration of 50 μM
[4] = biological target: T2, p65 subunit of transcription factor NFkB from PC12 cell soluble extract (rat, UniProt Q7TQN4 1-550); assay: competition of unlabeled R3 against 125I-Y-R3 cross-linking to the 65 kDa protein
T2 construct: also called NFkB p65; 65 kDa species
T2 sequence (Q7TQN4 whole entry): as above
Method: (§1) At that time, EDC (Pierce) and NHS (Pierce) were added to a final concentration of 2 mM each and the reaction allowed to proceed for 30 min at room temperature. The reaction was quenched by adding Tris-HCl to a final concentration of 50 mM. An aliquot was removed and mixed with 4 volumes of SDS sample buffer for SDS-PAGE and the remainder subjected to immunoprecipitation.
The p65 subunit of NFkB was detected in PC12 soluble extracts and in the R3-affinity purified material (FIG. 9A). This 65 kDa protein could also be specifically cross-linked to the iodinated probe for the intracellular domain of P75^NTR, the interaction being displaced by a 150-fold molar excess of unlabeled peptide, and the complex immunoprecipitated by antibodies to the transcription factor (FIGS. 9B and […]).

[5] = biological target: T2, p65 subunit of transcription factor …; assay: affinity chromatography of PC12 soluble extract on R3 matrix, SDS-PAGE, silver stain
Method: PC12 cells were harvested and washed by 3 cycles of resuspension and centrifugation in Ca^2+, Mg^2+-free Gey's Balanced Salt Solution (CMF). […] The column was then washed with 10 bed volumes of homogenizing buffer and 10 bed volumes of detergent-free homogenizing buffer. The bound material was then eluted with 0.5 mg/ml R3 peptide. The eluate was dialyzed (3500 cut off) extensively against 10 mM sodium phosphate pH 7.4 and taken to dryness under reduced pressure on a Speed Vac (Savant).
A soluble extract of PC12 cells was applied to the R3 affinity resin. […] A similar profile was obtained when extracts from "primed" (exposed to 100 ng/ml NGF for 10 days) PC12 cells, PC12^nnr5 cells or ED9 chick brain were used.

[6] = biological target: T2, p65 subunit of transcription factor …; assay: chemical cross-linking (EDC/NHS) of 125I-Y-R3 to PC12 soluble extract, SDS-PAGE, autoradiography
Method: as §1

[7] = 10 μM peptide in solution, no additive to culture medium
[8] = time course of association with PC12 cells

**Q.** What does the source list for “R4: hybrid: R3 linked via its amino terminus to an 11-amino acid peptide homologue of the inner transmembrane domain of p75^NTR (Sequence ID No. 7) (VVVGLVAYIAFLDALLAALRRIQR)”?
**A.** Cell association resistant to chase (uptake), in words (PC12 cells [1]): did not suggest an uptake process; Time at half-maximal uptake (PC12 cells [1]; [7]): 0 min; Effect on NGF-mediated neurite growth, co-incubation, in words (PC12 cells [2]): did not enhance NGF-mediated neurite growth

**Q.** How did the “% of Control Response DRG” value (ED8 chick DRG neurons) turn out when LDALLAALRAIQR [R9] was run?
**A.** 61 ± 1^(5) %

**Q.** And the “Reduction (loss) of biological effect relative to R3 on enhancement of NGF-mediated neurite growth” value (ED8 chick DRG neurons)?
**A.** approximately 40%

**Q.** And the “Activity relative to R3 in influencing NGF-mediated neurite growth” value (ED8 chick DRG neurons; in vitro)?
**A.** 50-60% and 61%

**Q.** And the “Displacement of radiolabel from 65 kDa band” value (p65 subunit of NFkB)?
**A.** 76%

**Q.** LDALLAALRRRQR [R10] was tested. Which “% of Control Response DRG” value (ED8 chick DRG neurons) did it give?
**A.** 29 ± 4^(5) %

**Q.** What about the “Reduction (loss) of biological effect relative to R3 on enhancement of NGF-mediated neurite growth” value (ED8 chick DRG neurons) of the same molecule?
**A.** approximately 70%

**Q.** And the “Displacement of radiolabel from 65 kDa band” value (p65 subunit of NFkB)?
**A.** 43%

**Q.** With nerve growth factor [NGF] as the molecule, how does the “Neurite growth in control wells” value (ED8 chick DRG neurons; NGF 0.04 pM alone) read?
**A.** 5.5±2.1

**Q.** And the “Neurite growth in control wells” value (ED8 chick DRG neurons; NGF 0.4 pM alone)?
**A.** 14.0±6.1

**Q.** And the “Neurite growth in control wells” value (ED8 chick DRG neurons; NGF 4 pM alone)?
**A.** 31.7±8.7

**Q.** And the “Neurite growth in control wells” value (ED8 chick DRG neurons; NGF 40 pM alone)?
**A.** 44.8±8.6

**Q.** How did the “Uptake at full saturation” value (PC12 cells [1]) turn out when “Y-R3: tyrosinated peptide analogue of R3, N-terminal tyrosine (Sequence ID No. 6); radio-iodinated for uptake and cross-linking (YLDALLAALRRIQR; also: radio-iodinated)” was run?
**A.** 20 pmol/10^6 cells

**Q.** And the “Time at half-maximal uptake” value (PC12 cells [1]; [7])?
**A.** 30 min

**Q.** What about the “Time at half-maximal uptake” value (PC12 cells [1]; 10 μM peptide, MgCl2 (10 mM) added to culture medium) of the same molecule?
**A.** 30 min

**Q.** And the “Time for which label remained resistant to chase by excess unlabeled R3” value (PC12 cells [1]; cold chase)?
**A.** up to 50 hours

**Q.** What about the “Time at which uptake was half-maximally saturated” value (PC12 cells [1]; [8]) of the same molecule?
**A.** 30 min

**Q.** What about the “Time to full saturation of uptake” value (PC12 cells [1]; [8]) of the same molecule?
**A.** 10 to 20 h

**Q.** And the “Interaction with 65 kDa species by chemical cross-linking, in words” value (p65 subunit of NFkB; soluble PC12 extract)?
**A.** interacted specifically

**Q.** How did the “Effect on NGF-mediated neurite growth, co-incubation, in words” value (PC12 cells [2]) turn out when mastoparan [MP] was run?
**A.** did not significantly influence

**Q.** And the “Effect on NGF-mediated c-fos mRNA induction, in words” value (c-fos mRNA)?
**A.** stimulatory effect

**Q.** And the “Cytotoxicity, in words” value (PC12 cells [3])?
**A.** cytotoxic

**Q.** Does LDALLAALRRIQR (also called peptide R3; unlabeled R3) [R3 peptide (synthetic peptide identical to rat p75NTR 367-379)] bind [4]?
**A.** binds

B1: R3 affinity matrix peptide (R3 with six residues added to the N-terminus, coupled to Aminolink agarose) (peptide)
peptide: KAYIAFLDALLAALRRIQR
modifications: also: coupled at pH 7.0 to Aminolink agarose
notes: Immobilised on agarose beads in the assay
**Q.** Does B1 bind [5]?
**A.** binds

B2: 125I-Y-R3 (R3 peptide with N-terminal tyrosine, radio-iodinated) (peptide)
peptide: Y(125I)LDALLAALRRIQR
notes: Used at 0.5 uM in cross-linking with EDC/NHS; also called tyrosinated peptide analogue of R3; iodinated probe for the intracellular domain of p75NTR
**Q.** Does B2 bind [6]?
**A.** binds
